Tests used:
[1] = target: T1, arachidonate-5-lipoxygenase (Rattus norvegicus, UniProt P12527); assay: Inhibition of 5-lipoxygenase in prepared macrophages from Wistar rats; format: cell-based; settings: quadruple determinations, mean IC50, read-out: IC50 (50% inhibition of 5-lipoxygenase)
T1 construct: using prepared macrophages from Wistar rats; endogenous in cells; host or cells: prepared macrophages from Wistar rats
T1 sequence (P12527 1-673): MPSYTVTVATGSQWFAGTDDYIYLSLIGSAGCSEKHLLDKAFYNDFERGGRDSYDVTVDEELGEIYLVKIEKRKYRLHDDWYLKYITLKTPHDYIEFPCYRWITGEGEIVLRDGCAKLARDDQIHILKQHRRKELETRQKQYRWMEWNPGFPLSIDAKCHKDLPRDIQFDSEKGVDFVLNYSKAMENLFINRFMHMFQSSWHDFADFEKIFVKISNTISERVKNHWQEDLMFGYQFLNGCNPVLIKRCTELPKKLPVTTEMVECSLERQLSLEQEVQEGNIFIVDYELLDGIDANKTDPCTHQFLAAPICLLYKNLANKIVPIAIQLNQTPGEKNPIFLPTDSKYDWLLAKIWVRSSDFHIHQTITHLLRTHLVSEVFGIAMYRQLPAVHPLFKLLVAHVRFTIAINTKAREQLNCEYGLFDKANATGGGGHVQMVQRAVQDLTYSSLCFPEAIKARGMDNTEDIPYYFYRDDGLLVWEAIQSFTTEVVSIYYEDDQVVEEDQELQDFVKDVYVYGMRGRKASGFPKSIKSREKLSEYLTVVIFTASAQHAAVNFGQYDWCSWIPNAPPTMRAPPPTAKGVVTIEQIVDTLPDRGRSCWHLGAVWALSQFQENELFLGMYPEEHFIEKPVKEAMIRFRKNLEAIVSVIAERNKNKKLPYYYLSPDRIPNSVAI
From the text: Murphy, R. C. and Matthews, W. R., Purification and Characterization of Leukotrienes from Mastocytoma Cells, Methods in Enzymology, 86, pp. 409-416.
Argentiere, D. D., Ritchie, D. M. et al., Tepoxalin: A Dual Cyclooxygenase/5-Lipoxygenase Inhibitor of Arachidonic Acid Metabolism with Potent Anti-inflammatory Activity and a Favorable Gastrointestinal Profile, The Journal of Pharmacology and Experimental Therapeutics, Vol. 271, No. 3, 1399-1408, 1994.
Carter, G. W., Young, P. R. et al., 5-Lipoxygenase Inhibitory activity of Zileuton, The Journal of Pharmacology and Experimental Therapeutics, Vol. 256, No. 3, 1991.
The experiments were all conducted as quadruple determinations, by combining four partial experiments in each case were combined to determine the mean IC50 value.

late phase eosinophilia = assay: Inhibition of late phase eosinophilia 24 hours after the inhalational ovalbumin challenge on actively sensitized guinea-pigs; format: in vivo; settings: -2 h; for EOS, B (eosinophils in the group treated with the substance, with challenge): x ± s
From the text: Eosinophilic granulocytes play an important part in the transition of allergic diseases, e.g. bronchial asthma, to the chronic stage. Thus the bronchoalveolar lavage fluid (BAL) contains an increased number of eosinophils a few hours after an allergen-induced asthmatic attack. Eosinophils are expected to play an important part in cell damage since they contain histotoxic proteins, like major basic protein (MBP) and eosinophil cation protein (ECP), in their granula. It is also assumed that substances which prevent the infiltration of eosinophils have a therapeutic action against allergic diseases like bronchial asthma.
The inhibition of eosinophil infiltration by the substances was tested in vivo on guinea-pigs actively sensitized against ovalbumin by the substantenous administration of 10 μg of OA, with 1 μg of aluminum hydroxide adjuvant, three weeks before the beginning of the experiment, and a booster dose containing the same amount of OA and aluminum hydroxide was administrated substantaneously one week before the beginning of the experiment. Three weeks after the first sensitization, the animals were placed in a plastic box and exposed to an aerosol of 0.5% OA dissolved in a physiological saline solution. The nebulization time was 20-30 seconds. After 24 hours the animals were intraperitoneally anaesthetized with 1.5 g/kg body weight ethylurethane and a bronchioalveolar lavage was performed with 2×5 ml of physiological saline solution. The lavage fluid was collected and centrifuged at 400 G for 10 minutes and the cell pellet was then resuspended in 1 ml of physiological saline solution. The eosinophils were microscopically counted in a Neubauer chamber after staining using the No. 5877 Becton-Dickinson test kit for eosinophilia. The number of eosinophils was indicated in millions per animal. Each test was also carried out with two control groups with and without antigen challenge.
The percentage inhibition of the eosinophilia in the experimental groups treated with the substance is calculated by the following formula:
(A-C)-(B-C)/(A-C)×100=% inhibition
The test substances were administered orally or intraperitoneally as a triturate in 0.5% 5-hydroxyethylcellulose two hours before the antigen challenge.

[2] = test system: SRS-A bronchoconstriction in guinea-pigs sensitized with ovalbumin; assay: SRS-A bronchoconstriction in anaesthetized, ovalbumin-sensitized guinea-pigs after inhalation of antigen; format: in vivo; settings: -2 hrs, 1% OA, 20 inspirations
Method: For this purpose, guinea-pigs are actively sensitized against ovalbumin (OA) with 20 μg OA+20 mg Al(OH)3 in 0.5 ml, administered intraperitoneally (i.p.) and a booster dose of the same is administered 14 days later. One week after the booster dose, the animals are i.p. anaesthetized with urethane and connected to an apparatus (Mumed Physiological Recorder 800) for the determination of pulmonary function parameters. The animals are pretreated with mepyramine to antagonize the histamine, with indomethacin to inhibit the formation of prostaglandins, and with propanolol to eliminate β-adrenergic mechanisms. If an allergic reaction is induced after this treatment, the associated bronchospam is extensively attributable to the effect of leukotrienes.
Before the experiment the test substances were administered orally two hours before the challenge. After an equilibration period an asthmatic challenge attack is induced by the nebulization of a 1% ovalbumin solution over 20 inspirations.
The drop in dynamic compliance is used as a suitable and well reproducible parameter for characterizing the action of leukotrienes. Under control conditions, after pretreatment and ovalbumin challenge, guinea-pigs react with a slow drop in compliance of c. 30-40% over 15 minutes.

[3] = test system: tracheal segments from actively sensitized guinea-pigs; assay: Inhibition of the antigen (ovalbumin)-induced contraction of isolated tracheal segments from actively sensitized guinea-pigs; design: species or system guinea-pig; settings: Cavia porcellus; at 3.0 μmol/l; under mepyramine and indomethacin protection; read-out: maximum inhibition (ovalbumin-induced contraction)
Method: For this purpose, isolated tracheal segments from guinea-pigs actively sensitized against ovalbumin by the s.c. administration of 10 μg of ovalbumin with 1 mg of aluminum hydroxide adjuvant, three weeks before removal of the organ, and a booster dose of the same amount of ovalbumin and aluminum hydroxide s.c. one week before removal of the organ. The segments were placed in organ baths filled with a nutrient solution aerated with carbogen which is a mixture of 95% oxygen and 5% carbon dioxide, and kept at 37° C., and were connected to isometric force transducers. After preincubation with mepyramine to eliminate histamine, and indomethacin for the inhibition of cyclooxygenase, 5×10^-7 mol/l carbachol (carbamylcholine chloride) was added and a contraction was induced. 10 μg/ml ovalbumin as an allergen was then added to the bath liquid and the maximum contraction of the tracheal segments which was thereby induced was correlated with the effect of the carbachol as control (=100%). The test substances were added to the organ bath 30 minutes before the allergen-induced contraction. Table 2 below indicates the IC50 values, i.e. the concentrations which cause a 50% inhibition of the contraction of isolated tracheal segments from the guinea-pig. The IC50 values were determined by testing 3-4 concentrations on 4-8 organs in each case.

IC50 [1]: 410 nM
Compound: COc1ccc2c(c1)c(O)nn2Cc1ccc(Cl)c(Cl)c1 [Example 6, 1-(3,4-dichlorobenzyl)-5-methoxy-1H-indazole-3-ol]
% inhibition (eosinophilia) (late phase eosinophilia; 1 mg/kg i.p.): 58.8%
EOS, B (eosinophils in the group treated with the substance, with challenge) (late phase eosinophilia; 1 mg/kg i.p.): 2.9 ± 1.2 mill./animal
% inhibition (eosinophilia) (late phase eosinophilia; 30 mg/kg p.o.): 40.4%
EOS, B (eosinophils in the group treated with the substance, with challenge) (late phase eosinophilia; 30 mg/kg p.o.): 3.5 ± 1.7 mill./animal
% drop in dyn. compliance ([2]; 5.0 mg/kg oral): 25 ± 9.9%
% inhibition ([2]; 5.0 mg/kg oral): 38%
% drop in dyn. compliance ([2]; 10.0 mg/kg oral): 7.0 ± 2.7%
% inhibition ([2]; 10.0 mg/kg oral): 83%
inhibition at 3 µM [3]: 40%
